In the NIST ThermoML archive (doi:10.1016/j.tca.2015.02.020):

Assay: molar heat capacity at constant pressure; xn = mol fraction of the nth substance listed
Conditions: 101 kPa, Liquid, Small sample (50 mg) DSC

NCCO [2-aminoethan-1-ol] + O
Conditions | molar heat capacity at constant pressure [J/K/mol]
207.9 K, x1 = 0.73 | 113.75
210.55 K, x1 = 0.19 | 71
211.06 K, x1 = 0.31 | 79.98
211.07 K, x1 = 0.23 | 73.71
212.29 K, x1 = 0.23 | 70.92
212.29 K, x1 = 0.31 | 77.16
212.64 K, x1 = 0.73 | 114.74
214.38 K, x1 = 0.23 | 74.55
214.38 K, x1 = 0.31 | 80.61
215.29 K, x1 = 0.19 | 72.31
217.03 K, x1 = 0.23 | 72.04
217.03 K, x1 = 0.31 | 78.1
217.38 K, x1 = 0.73 | 115.23
220.03 K, x1 = 0.19 | 73.62
221.01 K, x1 = 0.31 | 81.87
221.76 K, x1 = 0.23 | 73.15
221.77 K, x1 = 0.31 | 79.36
222.11 K, x1 = 0.73 | 115.72
224.33 K, x1 = 0.31 | 82.81
224.77 K, x1 = 0.19 | 74.66
226.51 K, x1 = 0.23 | 74.27
226.52 K, x1 = 0.31 | 80.3
226.86 K, x1 = 0.73 | 116.22
229.51 K, x1 = 0.19 | 75.97
230.97 K, x1 = 0.23 | 80.69
230.97 K, x1 = 0.31 | 84.38
231.24 K, x1 = 0.23 | 75.67
231.25 K, x1 = 0.31 | 81.24
231.6 K, x1 = 0.73 | 116.22
234.25 K, x1 = 0.19 | 77.02
234.28 K, x1 = 0.31 | 85.32
234.29 K, x1 = 0.23 | 81.25
235.99 K, x1 = 0.23 | 76.78
236 K, x1 = 0.31 | 82.81
236.34 K, x1 = 0.73 | 116.71
238.99 K, x1 = 0.19 | 78.07
240.72 K, x1 = 0.23 | 78.18
240.73 K, x1 = 0.31 | 84.06
240.93 K, x1 = 0.23 | 82.93
240.93 K, x1 = 0.31 | 87.2
241.08 K, x1 = 0.73 | 118.2
241.4 K, x1 = 0.19 | 78.86
243.73 K, x1 = 0.19 | 79.12
244.25 K, x1 = 0.23 | 84.04
244.25 K, x1 = 0.31 | 88.14
244.73 K, x1 = 0.19 | 80.17
245.47 K, x1 = 0.23 | 79.57
245.47 K, x1 = 0.31 | 85.63
245.83 K, x1 = 0.73 | 120.18
247.57 K, x1 = 0.23 | 85.16
247.57 K, x1 = 0.31 | 89.08
247.58 K, x1 = 0.19 | 81.21
248.48 K, x1 = 0.19 | 80.17
250.22 K, x1 = 0.23 | 80.69
250.23 K, x1 = 0.31 | 86.57
250.58 K, x1 = 0.73 | 122.15
250.9 K, x1 = 0.23 | 86.28
250.9 K, x1 = 0.31 | 90.02
251.37 K, x1 = 0.19 | 82.79
253.23 K, x1 = 0.19 | 80.95
254.22 K, x1 = 0.31 | 91.28
254.23 K, x1 = 0.23 | 87.11
254.7 K, x1 = 0.19 | 84.1
254.97 K, x1 = 0.23 | 82.37
254.98 K, x1 = 0.31 | 88.14
255.33 K, x1 = 0.73 | 124.13
257.98 K, x1 = 0.19 | 81.74
259.72 K, x1 = 0.23 | 83.48
259.72 K, x1 = 0.31 | 89.39
260.08 K, x1 = 0.73 | 126.11
260.88 K, x1 = 0.23 | 89.07
260.88 K, x1 = 0.31 | 93.16
261.35 K, x1 = 0.19 | 86.45
262.73 K, x1 = 0.19 | 82.79
264.2 K, x1 = 0.23 | 90.18
264.2 K, x1 = 0.31 | 94.1
264.47 K, x1 = 0.23 | 84.88
264.48 K, x1 = 0.31 | 90.96
264.67 K, x1 = 0.19 | 87.5
264.83 K, x1 = 0.73 | 128.09
267.48 K, x1 = 0.19 | 83.57
269.23 K, x1 = 0.23 | 86.28
269.23 K, x1 = 0.31 | 92.22
269.58 K, x1 = 0.73 | 130.07
270.7 K, x1 = 0.73 | 140.45
270.86 K, x1 = 0.23 | 91.58
270.86 K, x1 = 0.31 | 95.98
271.34 K, x1 = 0.19 | 89.86
272.24 K, x1 = 0.19 | 84.36
274.02 K, x1 = 0.23 | 87.67
274.02 K, x1 = 0.31 | 93.79
274.07 K, x1 = 0.73 | 140.95
274.23 K, x1 = 0.23 | 92.42
274.23 K, x1 = 0.31 | 96.61
274.39 K, x1 = 0.73 | 132.04
274.73 K, x1 = 0.19 | 90.65
277.12 K, x1 = 0.19 | 84.88
278.94 K, x1 = 0.23 | 88.79
278.94 K, x1 = 0.31 | 95.04
279.3 K, x1 = 0.73 | 133.53
280.95 K, x1 = 0.73 | 141.44
281.11 K, x1 = 0.23 | 93.26
281.11 K, x1 = 0.31 | 97.86
281.61 K, x1 = 0.19 | 91.69
282.05 K, x1 = 0.19 | 85.67
283.85 K, x1 = 0.23 | 89.91
283.85 K, x1 = 0.31 | 96.29
284.22 K, x1 = 0.73 | 134.02
284.4 K, x1 = 0.73 | 141.44
284.56 K, x1 = 0.23 | 93.26
284.56 K, x1 = 0.31 | 97.86
285.05 K, x1 = 0.19 | 91.96
